system: lipid peroxidation (cerebral tissue homogenate); test: Inhibition test of lipid peroxidation (malondialdehyde formation, thiobarbituric acid method); settings: 5 μM, rat cerebral tissue supernatant, pH 7.4, 37° C., 30 minutes

**Q.** With `Nc1nc(N(CCSSCCN(Cc2ccccc2)c2n[nH]c(N)n2)Cc2ccccc2)n[nH]1` [Compound 7, bis{2-[N-benzyl-N-(5-amino-1,2,4-triazol-3-yl)amino]ethyl}disulfide] as the compound, how does the “Inhibition (%) Dose 5 μM” value read?
**A.** 31.4%

**Q.** Which “Inhibition (%) Dose 5 μM” value does the source give for `Nc1n[nH]c(N(CCSSCCN(Cc2cccc(Br)c2)c2nc(N)n[nH]2)Cc2cccc(Br)c2)n1` [Compound 13] here?
**A.** 51.1%

**Q.** With `Nc1n[nH]c(N(CCSSCCN(Cc2ccc(Br)cc2)c2nc(N)n[nH]2)Cc2ccc(Br)cc2)n1` [Compound 14] as the compound, how does the “Inhibition (%) Dose 5 μM” value read?
**A.** 49.2%

**Q.** `COc1ccc(CN(CCSSCCN(Cc2ccc(OC)cc2)c2nc(N)n[nH]2)c2nc(N)n[nH]2)cc1` [Compound 17] was tested. Which “Inhibition (%) Dose 5 μM” value did it give?
**A.** 22.2%

**Q.** With `Nc1n[nH]c(N(CCSSCCN(Cc2ccc(OCc3ccccc3)cc2)c2nc(N)n[nH]2)Cc2ccc(OCc3ccccc3)cc2)n1` [Compound 18] as the compound, how does the “Inhibition (%) Dose 5 μM” value read?
**A.** 71.7%

**Q.** How did the “Inhibition (%) Dose 5 μM” value turn out when `Nc1n[nH]c(N(CCSSCCN(Cc2cccc([N+](=O)[O-])c2)c2nc(N)n[nH]2)Cc2cccc([N+](=O)[O-])c2)n1` [Compound 19] was run?
**A.** 21.3%

**Q.** Which “Inhibition (%) Dose 5 μM” value does the source give for `Nc1n[nH]c(N(CCSSCCN(Cc2ccc([N+](=O)[O-])cc2)c2nc(N)n[nH]2)Cc2ccc([N+](=O)[O-])cc2)n1` [Compound 20] here?
**A.** 35.2%

**Q.** How did the “Inhibition (%) Dose 5 μM” value turn out when `Nc1n[nH]c(N(CCSSCCN(Cc2cccc(C(F)(F)F)c2)c2nc(N)n[nH]2)Cc2cccc(C(F)(F)F)c2)n1` [Compound 22] was run?
**A.** 36.6%

**Q.** How did the “Inhibition (%) Dose 5 μM” value turn out when `Cc1cccc(CN(CCSSCCN(Cc2cccc(C)c2)c2nc(N)n[nH]2)c2nc(N)n[nH]2)c1` [Compound 23] was run?
**A.** 48.1%

**Q.** How did the “Inhibition (%) Dose 5 μM” value turn out when `Cc1ccccc1CN(CCSSCCN(Cc1ccccc1C)c1nc(N)n[nH]1)c1nc(N)n[nH]1` [Compound 24] was run?
**A.** 41.6%

**Q.** With `Cc1ccc(CN(CCSSCCN(Cc2ccc(C)cc2)c2nc(N)n[nH]2)c2nc(N)n[nH]2)cc1` [Compound 25] as the compound, how does the “Inhibition (%) Dose 5 μM” value read?
**A.** 51.8%

**Q.** For `Cc1ccc(C)c(CN(CCSSCCN(Cc2cc(C)ccc2C)c2nc(N)n[nH]2)c2nc(N)n[nH]2)c1` [Compound 29], which “Inhibition (%) Dose 5 μM” value is on record?
**A.** 70.8%

**Q.** Which “Inhibition (%) Dose 5 μM” value does the source give for `Cc1cc(C)c(CN(CCSSCCN(Cc2c(C)cc(C)cc2C)c2nc(N)n[nH]2)c2nc(N)n[nH]2)c(C)c1` [Compound 30] here?
**A.** 85.8%

**Q.** For `CC(C)(C)c1ccc(CN(CCSSCCN(Cc2ccc(C(C)(C)C)cc2)c2nc(N)n[nH]2)c2nc(N)n[nH]2)cc1` [Compound 33], which “Inhibition (%) Dose 5 μM” value is on record?
**A.** 35.6%

**Q.** How did the “Inhibition (%) Dose 5 μM” value turn out when `Nc1n[nH]c(N(CCSSCCN(Cc2ccc(-c3ccccc3)cc2)c2nc(N)n[nH]2)Cc2ccc(-c3ccccc3)cc2)n1` [Compound 34] was run?
**A.** 55.8%

**Q.** With `Cc1ccc(CN(CCSSCCN(Cc2ccc(C)c([N+](=O)[O-])c2)c2nc(N)n[nH]2)c2nc(N)n[nH]2)cc1[N+](=O)[O-]` [Compound 37] as the compound, how does the “Inhibition (%) Dose 5 μM” value read?
**A.** 31.4%

**Q.** How did the “Inhibition (%) Dose 5 μM” value turn out when `Nc1n[nH]c(N(CCSSCCN(Cc2cccc3ccccc23)c2nc(N)n[nH]2)Cc2cccc3ccccc23)n1` [Compound 38] was run?
**A.** 56.8%

**Q.** How did the “Inhibition (%) Dose 5 μM” value turn out when `Nc1n[nH]c(N(CCSSCCN(Cc2ccc3ccccc3c2)c2nc(N)n[nH]2)Cc2ccc3ccccc3c2)n1` [Compound 39] was run?
**A.** 56.3%

**Q.** With vitamin E [reference compound] as the compound, how does the “Inhibition (%) Dose 5 μM” value read?
**A.** 12.6%

same assay, conditions: 100 μM, rat cerebral tissue supernatant, pH 7.4, 37° C., 30 minutes

**Q.** `CC(C)N(CCSSCCN(c1nc(N)n[nH]1)C(C)C)c1nc(N)n[nH]1` [Compound 6] was tested. Which “Inhibition (%) Dose 100 μM” value did it give?
**A.** 55.7%

**Q.** `Nc1nc(N(CCSSCCN(Cc2ccccc2)c2n[nH]c(N)n2)Cc2ccccc2)n[nH]1` [Compound 7, bis{2-[N-benzyl-N-(5-amino-1,2,4-triazol-3-yl)amino]ethyl}disulfide] was tested. Which “Inhibition (%) Dose 100 μM” value did it give?
**A.** 96.0%

**Q.** Which “Inhibition (%) Dose 100 μM” value does the source give for `COc1ccc(CN(CCSSCCN(Cc2ccc(OC)cc2)c2nc(N)n[nH]2)c2nc(N)n[nH]2)cc1` [Compound 17] here?
**A.** 100%

**Q.** For `Nc1n[nH]c(N(CCSSCCN(Cc2cccc([N+](=O)[O-])c2)c2nc(N)n[nH]2)Cc2cccc([N+](=O)[O-])c2)n1` [Compound 19], which “Inhibition (%) Dose 100 μM” value is on record?
**A.** 100%

**Q.** Which “Inhibition (%) Dose 100 μM” value does the source give for vitamin E [reference compound] here?
**A.** 30.5%
